Data reported in ChEMBL document CHEMBL1156028, “Synthesis of 1,6,7,8-tetrahydro-naphtho[2,3-d]-azepino[4,5-b]indole-9,14-diones and their inhibitory effects on pro-inflammatory cytokines” (Bioorg Med Chem Lett, 2009).
Calls of active or inactive are those of the source. No cut-off for these calls is given here.

What was measured:
RAW264.7 [1] = test: Antiinflammatory activity in mouse RAW264.7 cells assessed as inhibition of LPS-induced TNFalpha production after 24 hrs by immunoassay; type: functional, cell-based
RAW264.7 [2] = test: Antiinflammatory activity in mouse RAW264.7 cells assessed as inhibition of LPS-induced IL1-beta production at 1 to 5 ug/ml after 24 hrs by immunoassay; type: functional, cell-based
RAW264.7 [3] = test: Antiinflammatory activity in mouse RAW264.7 cells assessed as inhibition of LPS-induced PGE2 production at 5 ug/ml after 24 hrs by immunoassay; type: functional, cell-based
[4] = Cytotoxicity against mouse RAW264.7 cells assessed as cell viability at 1 to 5 ug/ml after 4 hrs by MTT assay; type: cell-based; conditions: read-out: Activity
RAW264.7 [5] = test: Antiinflammatory activity in mouse RAW264.7 cells assessed as inhibition of LPS-induced IL-6 production at 1 to 5 ug/ml after 24 hrs by immunoassay; type: functional, cell-based
RAW264.7 [6] = test: Antiinflammatory activity in mouse RAW264.7 cells assessed as inhibition of LPS-induced PGE2 production at 1 ug/ml after 24 hrs by immunoassay; type: functional, cell-based
RAW264.7 [7] = test: Antiinflammatory activity in mouse RAW264.7 cells assessed as inhibition of LPS-induced nitric oxide production after 24 hrs by immunoassay; type: functional, cell-based

| SMILES | Activity (RAW264.7 [1]) | Activity (RAW264.7 [2]) | Activity (RAW264.7 [3]) | viability at 4 h [4] [%] | Activity (RAW264.7 [5]) | inhibition (RAW264.7 [6]) | Activity (RAW264.7 [7]) |
| --- | --- | --- | --- | --- | --- | --- | --- |
| COc1ccc2[nH]c3c(c2c1)CCNC1=C3C(=O)c2ccccc2C1=O | Dose-dependent effect | inactive | Active | 58 | inactive | inactive | Dose-dependent effect |
| COc1cccc2c1C(=O)C1=C(NCCc3c1[nH]c1ccccc31)C2=O | Dose-dependent effect | inactive | Active | 58 | inactive | inactive | Dose-dependent effect |
| O=C1C2=C(C(=O)c3ccccc31)N(Cc1ccccc1)CCc1c2[nH]c2ccccc12 | Dose-dependent effect | inactive | Active | 58 | inactive | inactive | Dose-dependent effect |
| O=C1C2=C(C(=O)c3ccccc31)c1[nH]c3ccccc3c1CCN2 | Dose-dependent effect | inactive | Active | 58 | inactive | inactive | Dose-dependent effect |
| CCCN1CCc2c([nH]c3ccccc23)C2=C1C(=O)c1ccccc1C2=O | Dose-dependent effect | inactive | Active | 58 | inactive |  | Dose-dependent effect |
| C=CCN1CCc2c([nH]c3ccccc23)C2=C1C(=O)c1ccccc1C2=O | Dose-dependent effect | inactive | Active | 24 | inactive |  | Dose-dependent effect |
| CN1CCc2c([nH]c3ccccc23)C2=C1C(=O)c1ccccc1C2=O | Dose-dependent effect | inactive | Active | 58 | inactive |  | Dose-dependent effect |
